Test results published in US20220227849A1, “INHIBITOR OF SURFACE PROTEIN (SP-D) / SIRPA / SHP2 PATHWAY FOR USE IN THE PREVENTION AND/OR TREATMENT OF SECONDARY INFECTION” (UNIVERSITÉ DE NANTES, priority 2019, published 2022).

System: alveolar macrophages
Assay: In vivo phagocytic assay of alveolar macrophages 7 days after aseptic lung inflammatory response (intratracheal instillation)
Conditions: wild type mice inoculated intratracheally 7 days prior; TNF-α 2.5 μg, HMGB1 10 μg; 2 hours after YFP-E. coli; FIG. 3f
Procedure: CpG 1668 (10 nM), TNF-α (2.5 μg, Myltenyi Biotec, Paris, France) and HMGB1 (10 μg, Elabscience, Tex., USA) were administrated intra-tracheally under anaesthesia. Mice were kept in a semi-recumbent position for 60 seconds after injection.
Recipient mice were γ-irradiated twice with […] and were reconstituted with 2.5-5×10^6 T cell-depleted bone marrow cells of each relevant donor strain at the indicated ratio. Neomycin (50 mg/ml) was added to the drinking water for the next 4 weeks. Chimeras were used for subsequent experiments 6 to 10 weeks after the reconstitution. Percentage of chimerism was tested during the experiments.
YFP-S. aureus (Strain RN4220 with YFP/erm2 plasmid, kindly gifted by Malone, C. L. et al. 2009 [29]), and YFP-E. coli (strain DH5alpha with p-HG-1 plasmid, kindly gifted by Janssen, W. J. et al 2011 [30]) were grown overnight in Luria broth media with erythromycin 10 μg/mL or 20 μg/mL chloramphenicol, respectively. Fluoresbrite YG carboxylate microspheres (3.64 10^9 beads, […]; Polysciences), YFP-E. coli (OD600=2-3, 75 μL) or YFP-S. aureus (OD600=5-6, 75 μL) were injected i.t. in mice. 2 hours later, the percentages of FITC or YFP^+ macrophages in the lungs were measured by flow cytometry. In vitro phagocytic assay for splenic macrophages

**Q.** Which “phagocytic function of AM after YFP-E. coli pneumonia” value does the source give for TNF-α here?
**A.** displayed impaired phagocytic function

B1: HMGB1: danger-associated molecular pattern protein (Elabscience) administered intra-tracheally (protein, UniProt P63158 1-215, looked up)
High mobility group protein B1: MGKGDPKKPRGKMSSYAFFVQTCREEHKKKHPDASVNFSEFSKKCSERWKTMSAKEKGKFEDMAKADKARYEREMKTYIPPKGETKKKFKDPNAPKRPPSAFFLFCSEYRPKIKGEHPGLSIGDVAKKLGEMWNNTAADDKQPYEKKAAKLKEKYEKDIAAYRAKGKPDAAKKGVVKAEKSKKKKEEEDDEEDEEDEEEEEEEEDEDEEEDDDDE
**Q.** B1 was tested. Which “phagocytic function of AM after YFP-E. coli pneumonia” value did it give?
**A.** but not those of HMGB1 treated mice, displayed impaired phagocytic function
